Molecular target: T1, Adenosine receptor A2b (Homo sapiens, UniProt P29275)
T1 sequence (P29275 whole entry): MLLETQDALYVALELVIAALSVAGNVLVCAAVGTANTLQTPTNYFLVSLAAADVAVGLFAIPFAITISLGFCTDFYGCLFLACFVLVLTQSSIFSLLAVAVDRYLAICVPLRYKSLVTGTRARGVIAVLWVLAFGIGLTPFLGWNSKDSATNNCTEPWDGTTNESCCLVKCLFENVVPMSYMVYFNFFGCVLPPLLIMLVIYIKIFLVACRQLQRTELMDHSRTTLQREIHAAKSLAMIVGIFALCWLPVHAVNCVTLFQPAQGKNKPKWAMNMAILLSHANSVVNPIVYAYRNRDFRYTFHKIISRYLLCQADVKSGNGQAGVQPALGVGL
Assay: Percent displacement of [3H]DPCPX binding in human adenosine A2B receptor expressed in COS-7 cells

Ki: 10 µM
SMILES: COc1ccccc1NC(=O)Nc1nc(-c2cccnc2)nc2ccccc12 [VUF-5574]

Reference: BindingDB's records for doi:10.1021/jm0003945 (Vrije Universiteit, 2001)
